From US10478389B2, “Hair-dye composition” (KAO CORPORATION, priority 2014, dated 2019)

Experiment: pKa values of the azo dyes
Type: physicochemical
Details: azo dye
Protocol: Thus, in the hair dye composition of the present invention having pH (25° C.) of 7.5 to 12, almost 80% or more of these azo dyes are present in an anionic state where a proton(s) is dissociated.

pKa | Structure (SMILES)
6 | CSc1nsc(/N=N/c2ccc(O)c(Cl)c2)n1 [Example A-1]
6 | NS(=O)(=O)c1ccc2nsc(/N=N/c3ccc(O)c(Cl)c3)c2c1 [Example A-2]
7.5 | Cn1nccc1/N=N/c1ccc(O)c(Cl)c1 [Example A-3]
